Measurements: patent publication US20240000783A1, “COMBINATION THERAPY” (Pfizer Inc., priority 2020, published 2024)

System: LNCaP prostate cancer cells (AR+ spheroids)
Assay: Multicellular tumor spheroid growth assay
Format: cell-based
Details: Homo sapiens, single agent, read-out: SGI % (percent spheroid growth inhibition); for inhibition at 0.1 µM: 100 nM; for inhibition at 1 µM: 1000 nM
Protocol: Example 1—Multicellular Tumor Spheroid Growth Assay in Human AR+ Prostate Cancer Cells (LNCaP) LNCaP prostate cancer cells were obtained from the ATCC and maintained in RPMI 1640 medium supplemented with 10% fetal bovine serum and penicillin-streptomycin as per ATCC guidelines. Cells were maintained in humidified incubator at 37° C. with 5% CO2. Spheroid assays were performed in 96 well ultralow attachment plates (ULA-96U) from Nexcelom & Thermo Fisher Scientific. […] To aid spheroid formation, dispensed cells were centrifuged at 220×g for 6 minutes in the ultralow attachment plates and allowed to form compact spheroids for 4 days prior to the initiation of treatment. After spheroids were formed, 150 μL of medium was aspirated from each well without disturbing the spheroid, and fresh RPMI medium of the same volume was added containing single agent compounds (palbociclib, COMPOUND A, or enzalutamide), or selected combinations thereof. Final concentrations of each compound in the wells were: 30 or 100 nM for palbociclib; 100, 300 or 1000 nM for COMPOUND A; and 1000 nM for enzalutamide. DMSO (0.01%) was used as the vehicle control. DMSO and all compounds were diluted in cell medium. Medium and compounds were replenished twice per week, with 3 and 4-day intervals. Replenishment was executed by aspirating 150 μL of medium per well without disturbing the spheroid and then adding the same volume of premixed medium/compound solution to spheroids. In some cases, an extended phase of treatment was followed by a ‘recovery’ phase where medium was replenished without addition of compounds. Spheroid diameter was quantified immediately following each medium change twice a week (on every 3rd or 4th day) throughout the duration of the assay. Growth of these MCTS was monitored over time to assess: (i) amplitude of response (SGI) and (ii) duration of response to single agents and combination treatments while on treatment. Average diameters of tumor spheroids were plotted in GraphPad Prism 8 and the area-under-curve (AUC) was calculated. AUC baseline was determined by the average tumor spheroid diameter at Day 0 in the vehicle (DMSO) controls. Spheroid growth inhibition, SGI, for all treatment arms was derived at the timepoint when the vehicle (DMSO) treated spheroids reach their maximal diameter (usually close to 1 mm but this can differ among cell lines); this corresponds to the last time point taken for the vehicle (DMSO) treated spheroids. SEM calculated based on n=10 to 12 wells per test group. Percent spheroid growth inhibition, or SGI %, was calculated as follows: SGI %=(1-AUC treatment/AUC DMSO)×100%.

SMILES | inhibition at 0.1 µM | inhibition at 0.3 µM (300 nM) | inhibition at 1 µM | inhibition at 0.03 µM (30 nM)
CC(C)n1c(C(C)(C)O)nc2c(F)cc(-c3nc(N[C@@H]4CCOC[C@H]4O)ncc3Cl)cc21 [COMPOUND A, 1,5-anhydro-3-({5-chloro-4-[4-fluoro-2-(2-hydroxypropan-2-yl)-1-(propan-2-yl)-1H-benzimidazol-6-yl]pyrimidin-2-yl}amino)-2,3-dideoxy-D-threo-pentitol] | 27% | 38% | 53% | 
CNC(=O)c1ccc(N2C(=S)N(c3ccc(C#N)c(C(F)(F)F)c3)C(=O)C2(C)C)cc1F [enzalutamide, 4-[3-[4-cyano-3-(trifluoromethyl)phenyl]-5,5-dimethyl-4-oxo-2-thioxo-1-imidazolidinyl]-2-fluoro-N-methyl-benzamide] |  |  | 46% | 
CC(=O)c1c(C)c2cnc(Nc3ccc(N4CCNCC4)cn3)nc2n(C2CCCC2)c1=O [palbociclib] | 24% |  |  | 5%
